The values that follow come from US6806230B1, “Pyrimidine derivatives and herbicides containing them” (Kumiai Chemical Industry Co., Ltd., priority 1999, dated 2004).

Assay type in all cases: in vivo
One data set concerns rice (Or). Nature of the data set: Test Example 4: selectivity for a crop plant by flooded paddy field treatment. Also on record: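 0-5 phytotoxicity grade; 5 = over 90%; 4 = 70-90%; 3 = 50-70%; 2 = 30-50%; 1 = 10-30%; 0 = under 10%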. To be noted: rice transplanted at second leaf stage, dose 25 gai/10a, 21st day after treatment, index per Table 44. Summed up:
(§1)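 Steps: fill pot with paddy soil and puddle; sow weed seeds; transplant rice at second-leaf stage; flood to 3 cm. Next day, drip the water-diluted wettable powder onto the water (25 g a.i./10 ares). Grow in greenhouse and rate herbicidal effect on day 21.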

Data set [1] has as its system monochoria (Mo). Described as above. Also on record: scale not given here. To be noted: monochoria, dose 25 gai/10a, 21st day after treatment, index per Table 44. Summed up: as §1
For data set [2], the system named is barnyard grass (Eo). The description is as above. Also on record: scale not given here. To be noted: barnyard grass, dose 25 gai/10a, 21st day after treatment, index per Table 44. Summed up:
as §1

The test system of data set [3] is barnyard grass (Eo). Nature of the data set: Test Example 1: herbicidal effects by flooded paddy field treatment. Also on record: herbicidal effects, Eo (barnyard grass):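 0-5 growth inhibition grade; 5 = over 90%; 4 = 70-90%; 3 = 50-70%; 2 = 30-50%; 1 = 10-30%; 0 = under 10%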. To be noted: dose 100 g active ingredient per 10 ares, examined on the 21st day after treatment, standards of Table 44. The method in brief: (§2)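 Flooded paddy pre-emergence test: sowing into puddled soil under 3 cm water, then dropwise water-surface treatment the following day with diluted wettable powder at 100 g active ingredient per 10 ares. Greenhouse cultivation followed, and weeds were rated against a standard scale at 21 days.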

In data set [4] the test system is monochoria (Mo). The description is as above. Also on record: herbicidal effects, Mo (monochoria):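 0-5 growth inhibition grade; 5 = over 90%; 4 = 70-90%; 3 = 50-70%; 2 = 30-50%; 1 = 10-30%; 0 = under 10%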. Particulars: dose 100 g active ingredient per 10 ares, examined on the 21st day after treatment, standards of Table 44. The method in brief: as §2
For a further data set, the system named is barnyard grass (Ec). Description: Test Example 2: herbicidal effects by upland soil treatment. Also on record: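 0-5 growth inhibition grade; 5 = over 90%; 4 = 70-90%; 3 = 50-70%; 2 = 30-50%; 1 = 10-30%; 0 = under 10%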. To be noted: dose 100 g active ingredient per 10 ares, examined on the 21st day after treatment, standards of Table 44. The method in brief: (§3)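 Pre-emergence test: barnyard grass and green foxtail sown in upland soil, then soil surface sprayed with wettable-powder formulation at 100 g active ingredient per 10 ares (100 l per 10 ares). Grown in greenhouse; herbicidal effect scored on a rating scale 21 days after treatment.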

The next data set concerns green foxtail (Se). The description is as above. To be noted: dose 100 g active ingredient per 10 ares, examined on the 21st day after treatment, standards of Table 44. The method in brief:
as §3
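For herbicidal effects, Se (green foxtail) in this document: 0-5 growth inhibition grade; 5 = over 90%; 4 = 70-90%; 3 = 50-70%; 2 = 30-50%; 1 = 10-30%; 0 = under 10%.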

For the compound `CN(C(=O)Cc1ccc(Br)cc1)C(c1cncnc1C(F)(F)F)C1CCCC1` (racemic) [Compound 1-140], the “Or (herbicidal effect index on crop)” value with rice (Or) was found to be 0. The “Mo (herbicidal effect index)” value with monochoria (Mo) [1] was 5. The “Eo (herbicidal effect index)” value in the data set with barnyard grass (Eo) [2] amounted to 5. In addition, in the data set on barnyard grass (Eo) [3], the “herbicidal effects, Eo (barnyard grass)” value is given as 5. Also, the “herbicidal effects, Mo (monochoria)” value in the data set with monochoria (Mo) [4] stood at 5. Also, the “herbicidal effects, Ec (barnyard grass)” value with barnyard grass (Ec) was 5. Besides, the “herbicidal effects, Se (green foxtail)” value in the data set on green foxtail (Se) stood at 5.

As for `Cc1ccc(CC(=O)N(C)C(c2cncnc2C(F)(F)F)C2CCCC2)cc1` (racemic) [Compound 1-141], the “Or (herbicidal effect index on crop)” value with rice (Or) is reported as 1. Moreover, the “Mo (herbicidal effect index)” value with monochoria (Mo) [1] came out at 5. The “Eo (herbicidal effect index)” value in the data set on barnyard grass (Eo) [2] came out at 5. The “herbicidal effects, Eo (barnyard grass)” value with barnyard grass (Eo) [3] is reported as 5. Besides, the “herbicidal effects, Mo (monochoria)” value in the data set with monochoria (Mo) [4] is 5. The “herbicidal effects, Ec (barnyard grass)” value in the data set with barnyard grass (Ec) worked out at 5. For the same compound, the “herbicidal effects, Se (green foxtail)” value in the data set on green foxtail (Se) is given as 5.

In the case of `Cc1ccc(CC(=S)N(C)C(c2cncnc2C(F)(F)F)C(C)C)cc1` (racemic) [Compound 1-145], the “Or (herbicidal effect index on crop)” value with rice (Or) is 1. Moreover, the “Mo (herbicidal effect index)” value in the data set with monochoria (Mo) [1] was 5. Further, the “Eo (herbicidal effect index)” value in the data set with barnyard grass (Eo) [2] is listed as 5. Also, the “herbicidal effects, Eo (barnyard grass)” value in the data set on barnyard grass (Eo) [3] came out at 5. In the data set on monochoria (Mo) [4], the “herbicidal effects, Mo (monochoria)” value was 5. For the same compound, the “herbicidal effects, Ec (barnyard grass)” value with barnyard grass (Ec) was determined as 5. Moreover, the “herbicidal effects, Se (green foxtail)” value with green foxtail (Se) is on record as 5.

Regarding `CC(C)C(c1cncnc1C(F)(F)F)N(C)C(=O)Cc1ccc2c(c1)OCO2` (racemic) [Compound 1-146], the “Or (herbicidal effect index on crop)” value with rice (Or) is 1. Further, the “Mo (herbicidal effect index)” value in the data set on monochoria (Mo) [1] is recorded as 5. In the data set on barnyard grass (Eo) [2], the “Eo (herbicidal effect index)” value came out at 5. In the data set with barnyard grass (Eo) [3], the “herbicidal effects, Eo (barnyard grass)” value is recorded as 5. Further, the “herbicidal effects, Mo (monochoria)” value with monochoria (Mo) [4] is 5. Further, in the data set on barnyard grass (Ec), the “herbicidal effects, Ec (barnyard grass)” value is given as 4. Besides, in the data set with green foxtail (Se), the “herbicidal effects, Se (green foxtail)” value is recorded as 4.

Take `CC(C)C(c1cncnc1C(F)(F)F)N(C)C(=O)Cc1ccc(F)cc1F` (racemic) [Compound 1-147]: the “Or (herbicidal effect index on crop)” value in the data set on rice (Or) is reported as 1. Further, the “Mo (herbicidal effect index)” value in the data set with monochoria (Mo) [1] worked out at 5. Besides, the “Eo (herbicidal effect index)” value in the data set on barnyard grass (Eo) [2] was determined as 5. Moreover, in the data set on barnyard grass (Eo) [3], the “herbicidal effects, Eo (barnyard grass)” value is listed as 5. Also, the “herbicidal effects, Mo (monochoria)” value with monochoria (Mo) [4] is 5. Moreover, in the data set on barnyard grass (Ec), the “herbicidal effects, Ec (barnyard grass)” value turned out to be 5. Besides, in the data set on green foxtail (Se), the “herbicidal effects, Se (green foxtail)” value was determined as 5.

With `CSc1ncncc1C(C(C)C)N(C)C(=O)Cc1ccccc1` (racemic) [Compound 1-150], the “Or (herbicidal effect index on crop)” value with rice (Or) was 1. In the data set on monochoria (Mo) [1], the “Mo (herbicidal effect index)” value is 5. Besides, the “Eo (herbicidal effect index)” value in the data set with barnyard grass (Eo) [2] is given as 5. Moreover, the “herbicidal effects, Eo (barnyard grass)” value in the data set on barnyard grass (Eo) [3] worked out at 5. Further, the “herbicidal effects, Mo (monochoria)” value in the data set with monochoria (Mo) [4] came to 5. Moreover, the “herbicidal effects, Ec (barnyard grass)” value in the data set on barnyard grass (Ec) was found to be 5. Besides, in the data set with green foxtail (Se), the “herbicidal effects, Se (green foxtail)” value was determined as 5.

Regarding `Cc1ncncc1C(N(C)C(=O)Cc1ccc(Cl)cc1)C(C)(C)C` (racemic) [Compound 1-161], the “Or (herbicidal effect index on crop)” value in the data set with rice (Or) turned out to be 0. In the data set on monochoria (Mo) [1], the “Mo (herbicidal effect index)” value was found to be 5. The “Eo (herbicidal effect index)” value with barnyard grass (Eo) [2] worked out at 5. The “herbicidal effects, Eo (barnyard grass)” value in the data set with barnyard grass (Eo) [3] amounted to 5. The “herbicidal effects, Mo (monochoria)” value in the data set with monochoria (Mo) [4] worked out at 5. In the data set with barnyard grass (Ec), the “herbicidal effects, Ec (barnyard grass)” value was 5. The “herbicidal effects, Se (green foxtail)” value in the data set with green foxtail (Se) is listed as 5.

For the compound `Cc1ccc(CC(=O)N(C)C(c2cncnc2C)C(C)(C)C)cc1` (racemic) [Compound 1-162], the “Or (herbicidal effect index on crop)” value in the data set with rice (Or) turned out to be 0. The “Mo (herbicidal effect index)” value with monochoria (Mo) [1] stood at 5. Also, the “Eo (herbicidal effect index)” value with barnyard grass (Eo) [2] was 5. Further, the “herbicidal effects, Eo (barnyard grass)” value in the data set on barnyard grass (Eo) [3] stood at 5. For the same compound, the “herbicidal effects, Mo (monochoria)” value in the data set with monochoria (Mo) [4] came to 5. The “herbicidal effects, Ec (barnyard grass)” value in the data set with barnyard grass (Ec) was 5. For the same compound, the “herbicidal effects, Se (green foxtail)” value with green foxtail (Se) worked out at 4.
